The text below walks through data of paper PMC8551653, “Bisphenol A derivatives act as novel coactivator-binding inhibitors for estrogen receptor β” (The Journal of Biological Chemistry, 2021).

For data set [1], the system named is ERα. Also noted: method as in PMID 31289329. The following applies: competitive binding, [3H] 17β-estradiol as radioligand; mean ± SD; read-out: Binding affinity (IC50, nM) ERα; cited from earlier work.
Data set [2] addresses T1, ERβ (Homo sapiens, UniProt Q92731). The data set is described as follows: Luciferase reporter gene assay in HeLa cells, agonistic activity. It is filed as cell-based. Also noted: expressed in transfected cells; host or cells: HeLa. The following applies: for maximum fold induction (agonistic activity on ERβ) / ERβ agonist activity (in words): HeLa cells; for maximum fold induction (agonistic activity on ERβ): ERE luciferase reporter, tested up to 10 µM; for ERβ agonist activity (in words): WT ERβ. The method, then:
(§1) HeLa cells were maintained in Eagle's minimum essential medium (Nissui Pharmaceutical Co, Ltd) supplemented with DCC-treated fetal bovine serum (10%, v/v) at 37 °C under 5% CO2. […] After a 24-h incubation, luciferase activity was measured using the ONE-Glo Luciferase Assay System (Promega Co) on an EnSpire multimode plate reader (PerkinElmer, Inc).
Target sequence in this assay (Q92731 whole entry): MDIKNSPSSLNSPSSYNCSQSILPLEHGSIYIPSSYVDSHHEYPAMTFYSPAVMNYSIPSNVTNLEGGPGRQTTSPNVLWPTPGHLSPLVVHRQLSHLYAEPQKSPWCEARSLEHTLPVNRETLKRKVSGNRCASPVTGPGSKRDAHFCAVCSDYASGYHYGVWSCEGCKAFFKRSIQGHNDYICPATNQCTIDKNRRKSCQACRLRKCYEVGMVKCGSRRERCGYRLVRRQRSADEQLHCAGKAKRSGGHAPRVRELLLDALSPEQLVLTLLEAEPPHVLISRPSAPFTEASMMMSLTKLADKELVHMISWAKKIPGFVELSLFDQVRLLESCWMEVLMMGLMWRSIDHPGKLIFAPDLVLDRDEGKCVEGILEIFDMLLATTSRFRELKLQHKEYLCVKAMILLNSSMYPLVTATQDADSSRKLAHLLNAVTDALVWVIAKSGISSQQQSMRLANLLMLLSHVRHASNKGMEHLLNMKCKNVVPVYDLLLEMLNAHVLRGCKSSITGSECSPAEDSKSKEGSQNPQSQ

The target of data set [3] is T1, ERβ. Briefly: Luciferase reporter gene assay in HeLa cells, antagonistic activity against 10 nM E2. It is filed as cell-based. Also on record: expressed in transfected cells; host or cells: HeLa. The following applies: for transcriptional activity (%) at most effective inhibitory concentration, ratio to that of 10 nM E2: HeLa cells, in the presence of 10 nM E2, 0.1, 1, 10 µM tested; for suppression of E2-induced activation: at the 10 μM concentration, 10 nM E2; for ERβ antagonist activity (in words): against 10 nM E2-induced ERβ activation, 100 nM, 1 μM, 10 μM. The method, then: as §1
In general terms: In a reporter assay the amount or activity of a reporter protein is the signal.
Target sequence in this assay (Q92731 whole entry): as above

Data set [4] concerns the target T1, ERβ. The data set is described as follows: Radioligand competitive binding assay with [3H]E2 for ERβ (GST-ERβ-LBD). Also on record: made in house; host or cells: Escherichia coli BL21α. Here is the method:
Human ERβ cDNA was obtained from OriGene Technologies. The cDNA of ERβ-LBD was amplified using PCR and subcloned into a pGEX-6p-1 expression vector. The expression of GST-fused ERβ-LBD was induced by 1 mM IPTG in Escherichia coli BL21α at 16 °C for overnight. The resulting crude protein was affinity-purified using Glutathione-Sepharose 4B (Cytiva), followed by gel filtration using a Sephadex G-10 column (Cytiva).
Target sequence in this assay (Q92731 263-530): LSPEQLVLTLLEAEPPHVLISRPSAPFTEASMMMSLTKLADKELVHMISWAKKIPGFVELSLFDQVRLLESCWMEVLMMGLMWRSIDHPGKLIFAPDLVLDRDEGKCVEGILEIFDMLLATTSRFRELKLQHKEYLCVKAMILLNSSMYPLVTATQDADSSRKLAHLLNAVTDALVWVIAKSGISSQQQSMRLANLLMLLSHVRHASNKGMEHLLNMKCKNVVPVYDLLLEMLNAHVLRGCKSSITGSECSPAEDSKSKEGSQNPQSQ

The target in data set [5] is T1, ERβ. The data set is described as follows: Competitive binding assay with [3H]4OHT for WT ERβ. Also noted: made in house; host or cells: Escherichia coli BL21α. The following applies: [3H]4OHT radioligand. Here is the method: After successive incubation with 100 μl of 0.4% dextran-coated charcoal (DCC) (Sigma-Aldrich) in PBS (pH 7.4) on ice for 10 min, free radioligands bound to DCC were removed using a vacuum filtration system with a 96-well filtration plate (MultiScreenHTS HV, […], Merck KGaA) for the bound/free separation. The radioactivity of each eluent was measured using a liquid scintillation counter (LS6500; Beckman Coulter) and Clear-sol I (Nacalai Tesque Inc). […] Each compound was dissolved in dimethyl sulfoxide to prepare a 1.0 mM stock solution and further diluted to prepare serial dilutions (10^−12 M to 10^−5 M) in the binding buffer. […] Bound/free separation was performed as described above, and the radioactivity was determined using a MicroBeta microplate counter (PerkinElmer Inc). The IC50 value of each test compound was calculated from the dose–response curves generated via nonlinear regression analysis using Prism software (GraphPad Software Inc).
Target sequence in this assay (Q92731 263-530): as above

[6] abbreviates: competitive binding, [3H] 17β-estradiol as radioligand, mean ± SD, read-out: Binding affinity (IC50, nM) ERβ.

Structures are written as SMILES. Like-named read-outs stand apart in the source and are kept apart here.

One may read the IC50 as the midpoint of a concentration-inhibition curve.

For `Nc1cc(C(c2ccc(O)c(N)c2)(C(F)(F)F)C(F)(F)F)ccc1O` [Compound 13, 2,2-Bis(3-amino-4-hydroxyphenyl)hexafluoropropane], the half-inhibitory concentration (IC50) in data set [1] was 334 ± 112 nM; in data set [4] (setting [6]), 224 ± 113 nM. In addition, the “maximum fold induction (agonistic activity on ERβ)” value (from here on “maximum fold induction”) in data set [2] amounted to 1.67. Further, the “transcriptional activity (%) at most effective inhibitory concentration, ratio to that of 10 nM E2” value in data set [3] is listed as 86.7%.

On to `CC/C(=C(\c1ccc(O)cc1)c1ccc(OCCN(C)C)cc1)c1ccccc1` [Compound 4OHT, 4-Hydroxytamoxifen, reference compound], for which the IC50 in data set [1] is […]. For the same compound, the “shape of competitive binding curve, WT ERβ” value in data set [5] is “biphasic curve”.

As for `CCCCC(CC)C(c1ccc(O)cc1)c1ccc(O)cc1` (stereo not shown) [Compound 6, 4,4′-(2-Ethylhexylidene)bisphenol], the half-inhibitory concentration (IC50) in data set [1] was 18.5 ± 6.7 nM. Moreover, in data set [2], the “maximum fold induction” value turned out to be 1.59 and the “ERβ agonist activity (in words)” value is reported as “no agonist activity”. In data set [3], the “transcriptional activity (%) at most effective inhibitory concentration, ratio to that of 10 nM E2” value amounted to 11.1% and the “suppression of E2-induced activation” value came to 90%. For the same compound, in data set [4] (setting [6]), the 50% inhibitory concentration (IC50) was found to be 25.9 ± 8.5 nM.

In the case of `CCC(C)(c1ccc(O)cc1)c1ccc(O)cc1` [Compound 8, 4,4'-(butane-2,2-diyl)diphenol], the IC50 in data set [1] was 195 ± 44 nM. Further, in data set [2], the “maximum fold induction” value is 5.13. For the same compound, in data set [2] (at the highest concentration of 10 μM), the “transcriptional activity as % of BPA-induced transcriptional activity” value is on record as ~50%. Besides, in data set [3], the “transcriptional activity (%) at most effective inhibitory concentration, ratio to that of 10 nM E2” value was 28.9% and the “ERβ antagonist activity (in words)” value is listed as “weak antagonist activity”. Besides, the “inhibition of BPA-induced activation” value in data set [3] (as worded) came out at 50%. Moreover, the IC50 in data set [4] came to 79.8 ± 12.6 nM.

`Cc1cc(C2(c3ccc(O)c(C)c3)c3ccccc3-c3ccccc32)ccc1O` [Compound 15, 9,9-Bis(4-hydroxy-3-methylphenyl)fluorene]: the “ERβ antagonist activity (in words)” value in data set [3] was “weak antagonist”. In data set [4], the 50% inhibitory concentration (IC50) came out at 405 ± 108 nM.

As for `CC(C)(c1ccc(O)cc1)c1ccc(C(C)(C)c2ccc(O)cc2)cc1` [Compound 16, 4,4'-(1,4-phenylenebis(propane-2,2-diyl))diphenol], in data set [1], the IC50 was 176 ± 35 nM. Also, in data set [2], the “maximum fold induction” value amounted to 1.44 and the “ERβ agonist activity (in words)” value is on record as “no agonist activity”. Besides, in data set [3], the “transcriptional activity (%) at most effective inhibitory concentration, ratio to that of 10 nM E2” value is recorded as 11.8% and the “ERβ antagonist activity (in words)” value is listed as “antagonistic activity”. In data set [4], this compound returned an IC50 of 607 ± 28 nM.

For `Nc1ccc(Oc2ccc(C(c3ccc(Oc4ccc(N)cc4)cc3)(C(F)(F)F)C(F)(F)F)cc2)cc1` [Compound 17, 2,2-Bis[4-(4-aminophenoxy)phenyl]hexafluoropropane], the results for the IC50 in data set [1] and in data set [4] were 1030 ± 375 nM and 609 ± 81 nM, respectively. In addition, the “maximum fold induction” value in data set [2] was 1.46. For the same compound, the “transcriptional activity (%) at most effective inhibitory concentration, ratio to that of 10 nM E2” value in data set [3] was 99.1%.

Regarding `CC(c1ccccc1)(c1ccc(O)cc1)c1ccc(O)cc1` [Compound 11, 4,4'-(1-phenylethane-1,1-diyl)diphenol], in data set [1], the IC50 is 259 ± 41 nM.

Turning to `Oc1ccc(C2(c3ccc(O)cc3)c3ccccc3-c3ccccc32)cc1` [Compound 14, 9,9-Bis(4-hydroxyphenyl)fluorene], the values for the concentration for half-maximal inhibition (IC50) in data set [1] and in data set [4] were 2230 ± 202 nM and 325 ± 60 nM, respectively. Besides, the “maximum fold induction” value in data set [2] came out at 2.47. For the same compound, the “transcriptional activity (%) at most effective inhibitory concentration, ratio to that of 10 nM E2” value in data set [3] was determined as 76.9%.

Take `CC(C)(c1ccc(O)cc1)c1cccc(C(C)(C)c2ccc(O)cc2)c1` [Compound 10, 4,4'-(1,3-phenylenebis(propane-2,2-diyl))diphenol]: the IC50 in data set [1] is 56.8 ± 11.7 nM. In data set [2], the “maximum fold induction” value is given as 1.12 and the “ERβ agonist activity (in words)” value is “no agonist activity”. Also, in data set [3], the “transcriptional activity (%) at most effective inhibitory concentration, ratio to that of 10 nM E2” value is given as 5.4% and the “ERβ antagonist activity (in words)” value was “antagonistic activity”. The same compound showed a half-inhibitory concentration (IC50) in data set [4] of 148 ± 80 nM.

On to `Cc1cc(C2(c3ccc(O)c(C)c3)CCCCC2)ccc1O` [Compound 9, 1,1-Bis(4-hydroxy-3-methylphenyl)cyclohexane], for which the IC50 in data set [1] is 38.6 ± 7.2 nM; in data set [4] (setting [6]), 132 ± 6.5 nM. For the same compound, in data set [2], the “maximum fold induction” value came to 2.27. Also, the “transcriptional activity (%) at most effective inhibitory concentration, ratio to that of 10 nM E2” value in data set [3] was 17.0%.

Consider `CC(C)(c1ccc(O)cc1)c1ccc(C(C)(c2ccc(O)cc2)c2ccc(O)cc2)cc1` [Compound 12, α, α, α′-Tris(4-hydroxyphenyl)-1-ethyl-4-isopropylbenzene], for which the half-inhibitory concentration (IC50) in data set [1] was 61.7 ± 10.4 nM. Moreover, in data set [2], the “maximum fold induction” value stood at 1.02 and the “ERβ agonist activity (in words)” value was “no agonist activity”. Moreover, in data set [3], the “transcriptional activity (%) at most effective inhibitory concentration, ratio to that of 10 nM E2” value came out at 7.7% and the “ERβ antagonist activity (in words)” value is on record as “antagonistic activity”. In data set [4], this compound had an IC50 of 212 ± 36 nM.

Take `C[C@]12CC[C@@H]3c4ccc(O)cc4CC[C@H]3[C@@H]1CC[C@@H]2O` [Compound E2, Estradiol, reference compound]: in data set [1], the IC50 is 0.88 ± 0.13 nM.

For the compound `Oc1ccc(C2(c3ccc(O)cc3)CCCCC2)cc1` [Compound 5, 4,4'-(cyclohexane-1,1-diyl)diphenol], the “maximum fold induction” value in data set [2] is 3.29. In addition, the “transcriptional activity (%) at most effective inhibitory concentration, ratio to that of 10 nM E2” value in data set [3] stood at 19.9%. For the same compound, the concentration for half-maximal inhibition (IC50) in data set [4] amounted to 21.6 ± 1.9 nM.

In the case of `Cc1cc(C(c2ccccc2O)c2cc(C)c(O)c(C)c2C)c(C)c(C)c1O` [Compound 7, 4,4′-(2-Hydroxybenzylidene)-bis(2,3,6-trimethylphenol)], the concentration for half-maximal inhibition (IC50) in data set [1] was 12.3 ± 7.3 nM. For the same compound, in data set [2], the “maximum fold induction” value is reported as 1.45 and the “ERβ agonist activity (in words)” value is given as “no agonist activity”. In data set [3], the “transcriptional activity (%) at most effective inhibitory concentration, ratio to that of 10 nM E2” value was 6.6% and the “suppression of E2-induced activation” value stood at 90%. Besides, in data set [4] (setting [6]), the IC50 stood at 41.5 ± 2 nM.

As to `Oc1ccc(C(c2ccc(O)cc2)C(Cl)(Cl)Cl)cc1` [Compound 3, 2,2-bis(p-hydroxyphenyl)-1,1,1-trichloroethane], the “ERβ antagonist activity (in words)” value in data set [3] is listed as “antagonistic activities”. Besides, in data set [4] (ERβ versus ERα IC50), the “preference of binding ERβ over ERα” value is “three times stronger binding to ERβ than ERα”.

Take `Cc1cc(C(C)(C)c2ccc(C(C)(C)c3cc(C)c(O)c(C)c3)cc2)cc(C)c1O` [Compound 20, α,α′-Bis(4-hydroxy-3,5-dimethylphenyl)-1,4-diisopropylbenzene]: the IC50 in data set [1] was 733 ± 628 nM. In data set [2], the “maximum fold induction” value amounted to 0.99 and the “ERβ agonist activity (in words)” value was “no agonist activity”. For the same compound, in data set [3], the “transcriptional activity (%) at most effective inhibitory concentration, ratio to that of 10 nM E2” value is 6.4% and the “ERβ antagonist activity (in words)” value is reported as “antagonistic activity”. Moreover, the 50% inhibitory concentration (IC50) in data set [4] (setting [6]) is > 10000 nM.
